In BigSolDB 2.1:

CC(C)N1C(=O)N(c2ccccc2)CSC1=NC(C)(C)C
solubility (mole fraction)
Conditions	273.15 K	278.15 K	283.15 K	288.15 K	293.15 K	298.15 K	303.15 K	308.15 K	313.15 K	318.15 K
in DMF	0.0306	0.0389	0.0493	0.0608	0.0725	0.0871	0.104	0.122	0.141	0.162
in acetone	0.03	0.0361	0.0427	0.0504	0.0593	0.0699	0.0814	0.096	0.114	0.134
in acetonitrile	0.00534	0.00774	0.0101	0.0133	0.0171	0.0219	0.0284	0.0354	0.0448	0.0564
in ethanol	0.00539	0.007	0.00917	0.0116	0.0146	0.0182	0.0228	0.0276	0.0342	0.0425
in ethyl acetate	0.0372	0.0465	0.0561	0.0679	0.0815	0.0971	0.116	0.136	0.16	0.187
in isopropanol	0.00586	0.00785	0.0103	0.0131	0.0165	0.0207	0.0254	0.031	0.0376	0.0454
in methanol	0.00377	0.00497	0.0064	0.00797	0.00998	0.0123	0.0154	0.0184	0.0225	0.0272
in n-butanol	0.00627	0.00908	0.0127	0.0167	0.0218	0.0281	0.0364	0.045	0.0577	0.0714
in n-octanol	0.00824	0.0114	0.0152	0.0197	0.0251	0.0321	0.0404	0.0505	0.063	0.0789
in n-propanol	0.00564	0.00798	0.011	0.0148	0.019	0.0254	0.0323	0.0414	0.0528	0.0668
in toluene	0.053	0.0651	0.0782	0.0924	0.11	0.128	0.15	0.172	0.198	0.227
in water	2.84e-05	3.48e-05	4.18e-05	5.08e-05	6.05e-05	7.26e-05	8.54e-05	0.000101	0.00012	0.000144
